Results: patent publication US20250325676A1, “CAMPTOTHECIN PRODRUG AND PHARMACEUTICAL COMPOSITION THEREOF” (TIANJIN HEMAY ONCOLOGY PHARMACEUTICAL CO., LTD, priority 2022, published 2025)
Like-named read-outs stand apart in the source and are kept apart here.

Columns and labels:
MDA-MB-468 = assay: In vitro inhibition of human tumor cells, MDA-MB-468, SRB method
Procedure: (§4) 1.1.2 Cell culture method: Cells were cultured in complete medium, 37° C., 5% CO2, saturated humidity to log growth phase (adherent cells generally attended to complete fusion), and cells were collected for subsequent experiments (adherent cells were first digested with trypsin/ethylene diamine tetraacetic acid (EDTA) to remove adherent).
(§5) 1.1.3 96-well cell culture plates (hereinafter referred to as 96-well plates) were inoculated with a certain number of cells (see Table 1 for details). The cells were allowed to adhere overnight. […] Finally, the total amount of cell protein in the assay wells was determined by the SRB method, or the cell viability was determined by the MTT method:
(§6) The culture medium was aspirated from the wells and the cells were fixed for 1 hour or more by adding 10% trichloroacetic acid. Trichloroacetic acid was removed. The resultant was washed with H2O and stained with 0.4% SRB for 15 to 30 minutes. Excess SRB was removed. The resultant was washed with 1% acetic acid. The protein-bound SRB was dissolved by adding 10 mM of 100 μl Tris (trishydroxymethylaminomethane). Tests were carried out at the wavelength of 570 nm.
(§7) 1.1.4 dilution and addition of β-glucuronidase: 1 to 2 mg of β-glucuronidase was weighed and dissolved in PBS to give a 2 mg/ml of stock solution. […] 80 μl of enzyme working solution was added to the enzyme-containing assay wells. The amount of β-glucuronidase was 1 μg/wells. No enzyme-containing assay wells were added to the 80 μl of complete medium.
(§8) The assay wells were charged with 20 μl of 10× compound working solution. The final volume was 200 μl per well. The DMSO concentration was 0.1%.
(§9) 1.1.6 Compound inhibition activity calculation: The test included a compound test group, a compound-free positive solvent control group (PC) and a compound-free negative solvent control group (NC). […] The average inhibition rate and the standard deviation (SD) were obtained from the repeated test wells. The average inhibition rate was plotted on the basis of the compound concentration as an abscissa and distributed in the form of logarithms. The curve was fitted to the Logistic 4 parameter equation. […] The test was generally repeated to obtain 3 valid results.

human colon cancer SW620 = settings: 30 mg/kg i.v. qw × 2, SW620 model
Procedure: An allogeneic transplantation model of human colon cancer SW620 was established in nude mice subcutaneously using a tumor block inoculation method. When the tumor volume of the allogeneic transplantation was about 100 to 300 mm^3 and remained stable, the experimental animals were randomly divided into groups according to the size of the tumor volume (day 0) by using a remainder method. The tumor volume was measured 2 to 3 times a week. At the end of the dosage period, the experimental animals were sacrificed. The subcutaneous tumors were peeled and weighed. The anti-tumor activity of the drug against the model was evaluated based on tumor volume and tumor weight-related data.
(§10) The calculation formula of the tumor volume was: Volume=0.5×long diameter×short diameter×short diameter.
(§11) V0 was the resulting tumor volume measured at the time of dosing in groups (i.e., d0) and Vt was the tumor volume at each measurement.
TRTV was the average value of RTV of the subject, and CRTV was the average RTV of the model control group.
(§12) Wn: average body weight of each group of experimental animals on day n, and W0: average body weight of each group of experimental animals on day 0.

A375 = assay: In vitro inhibition of human tumor cells, A375, SRB method
Procedure: as §4, §5, §6, §7, §8, §9

BEL-7404 = assay: In vitro inhibition of human tumor cells, BEL-7404, SRB method
Procedure: as §4, §5, §6, §7, §8, §9

HCT116 = assay: In vitro inhibition of human tumor cells, HCT116, MTT method; type: cell-based
human colon cancer LoVo = settings: 30 mg/kg i.v. qw × 2, LoVo model
Procedure: An allogeneic transplantation model of human colon cancer LoVo was established in nude mice subcutaneously using a tumor block inoculation method. When the tumor volume of the allogeneic transplantation was about 100 to 300 mm^3 and kept stable, the experimental animals were randomly divided into groups according to the tumor volume (day 0) by using a remainder method. The tumor volume was measured 2 to 3 times a week. At the end of the dosage period, the experimental animals were sacrificed. The subcutaneous tumors were peeled and weighed. The anti-tumor activity of the drug against the model was evaluated based on tumor volume and tumor weight-related data.
as §10
V0 was the resulting tumor volume measured at the time of dosing in groups (i.e., d0) and Vt is the tumor volume at each measurement.
(§13) T was the subject and C was the model control.
TRTV was the average RTV of the subject and CRTV was the average RTV of the model control group.
as §12

SW620 = assay: In vitro inhibition of human tumor cells, SW620, SRB method; type: cell-based
Description: (§1) The cells were allowed to adhere overnight.
(§2) Trichloroacetic acid was removed. […] Excess SRB was removed.
(§3) The DMSO concentration was 0.1%.

BxPC-3 = assay: In vitro inhibition of human tumor cells, BxPC-3, MTT method; type: cell-based
[1] = system: human gastric cancer NCI-N87; assay: Growth of human gastric cancer NCI-N87 in allogeneic transplantation model; type: in vivo, nude mice
Procedure: The tumor volume was measured 2 to 3 times per week. […] The subcutaneous tumors were peeled and weighed.
The calculation formula of the tumor volume: Volume=0.5×long diameter×short diameter×short diameter.

[2] = system: human colon cancer HCT116; assay: Growth of human colon cancer HCT116 in allogeneic transplantation model; type: in vivo, nude mice
Procedure: (§14) When the tumor volume of the allogeneic transplantation was about 100 to 300 mm^3 and remained stable, the experimental animals were randomly divided into groups according to the size of the tumor volume (day 0) by using a remainder method. The tumor volume was measured 2 to 3 times a week. At the end of the dosage period, the experimental animals were sacrificed. The subcutaneous tumors were peeled and weighed. The anti-tumor activity of the drug against the model was evaluated based on tumor volume and tumor weight-related data.
as §10, §11
(§15) TRTV was the average RTV of the subject, and CRTV was the average RTV of the model control group.
as §12

[3] = system: human small cell lung cancer NCI-H446; settings: 20 mg/kg i.v. qw × 2, NCI-H446 model
Procedure: An allogeneic transplantation model of human small cell lung cancer NCI-H446 was established in nude mice subcutaneously using a tumor block inoculation method. When the tumor volume of the allogeneic transplantation was about 100 to 300 mm^3 and remained stable, the experimental animals were randomly divided into groups according to the size of the tumor volume (day 0, i.e., d0) using a remainder method. The tumor volume was measured 2 to 3 times a week. At the end of the dosage period, the experimental animals were sacrificed. The subcutaneous tumors were peeled and weighed. The anti-tumor activity of the drug against the model was evaluated based on tumor volume and tumor weight-related data.
as §10, §11, §13, §15, §12

[4] = system: human pancreatic cancer BxPC-3; assay: Growth of human pancreatic cancer BxPC-3 in allogeneic transplantation model; type: in vivo, nude mice; settings: 25 mg/kg i.v. qw × 2, BxPC-3 model
Procedure: as §14, §10, §11, §13, §15, §12
(§16) In the large tumor efficacy test after the second grouping of the G5 group, since the number of samples in each group of G6.1 and G6.4 was less than three, the relevant data of the large tumor efficacy test were statistically analyzed among groups using the T-Test method.

[5] = system: human pancreatic cancer BxPC-3; settings: 30 mg/kg i.v. qw × 2
Procedure: as §14, §10, §11, §13, §15, §12, §16

22RV1 = assay: In vitro inhibition of human tumor cells, 22RV1, SRB method
Procedure: as §4, §5, §6, §7, §8, §9

NCI-N87 = assay: In vitro inhibition of human tumor cells, NCI-N87, MTT method; type: cell-based
LoVo = assay: In vitro inhibition of human tumor cells, LoVo, SRB method; type: cell-based
Description: as §1, §2, §3

[6] = system: human colon cancer HCT116; settings: 30 mg/kg i.v. qw × 2
Description: When the tumor volume was more than 600 mm^3 and stable growth was maintained, the experimental animals were randomly divided by the remainder method and administered according to the size of the tumor volume. […] The subcutaneous tumors were stripped and weighed.
T was the subject and C is the model control.
Tumor volume growth was observed on a regular basis after completion of dosing.

Fadu = assay: In vitro inhibition of human tumor cells, Fadu, MTT method; type: cell-based
NCI-H460 = assay: In vitro inhibition of human tumor cells, NCI-H460, MTT method; type: cell-based
[7] = No βGU (direct effects of compound on cells)
[8] = BxPC-3 large tumors after irinotecan
[9] = HCT116 large tumor after irinotecan

CCc1c2c(nc3ccc(OCc4ccc(O[C@@H]5O[C@H](C(=O)[O-])[C@@H](O)[C@H](O)[C@H]5O)cc4OCc4cn(CCCCCC(=O)Nc5ccc(-c6ccc(/N=N/c7ccc8c(S(=O)(=O)[O-])cc(S(=O)(=O)[O-])c(N)c8c7O)c(C)c6)cc5C)nn4)cc13)-c1cc3c(c(=O)n1C2)COC(=O)[C@]3(O)CC.[Na+].[Na+].[Na+] [Example 7, (2S,3S,4S,5R,6S)-6-(3-((1-(6-((4′-((E)-(8-amino-1-hydroxy-5,7-disulfonicnaphthalen-2-yl)diazenyl)-3,3′-dimethyl-[1,1′-biphenyl]-4-yl)amino)-6-oxohexyl)-1H-1,2,3-triazol-4-yl)methoxy)-4-((((S)-4,11-diethyl-4-hydroxy-3,14-dioxy-3,4,12,14-tetrahydro-1H-pyrano[3′,4′:6,7]indolazino[1,2-b]quinolin-9-yl)oxy)methyl)phenoxy)-3,4,5-trihydroxytetrahydro-2H-pyran-2-carboxylate trisodium]
IC50 (MDA-MB-468; Adding βGU): 6.8 nM | IC50 (MDA-MB-468; No βGU): 70 nM | T/C (%) (human colon cancer SW620): 0.6% | Tumor inhibition rate (%) (human colon cancer SW620): 99.7% | Final body weight change (%) (human colon cancer SW620; nude mouse): −4.6% | IC50 (A375; Adding βGU): 10 nM | IC50 (A375; No βGU): 600 nM | IC50 (BEL-7404; Adding βGU): 33 nM | IC50 (BEL-7404; No βGU): 514 nM | IC50 (HCT116; Adding βGU (β-glucuronidase)): 3.9 nM | IC50 (HCT116; [7]): 147 nM | T/C (%) (human colon cancer LoVo): 12.3% | Tumor inhibition rate (%) (human colon cancer LoVo): 91.1% | Final body weight change (%) (human colon cancer LoVo; nude mouse): 0.0% | IC50 (SW620; Adding βGU): 6.9 nM | IC50 (SW620; No βGU): 306 nM | IC50 (BxPC-3; Adding βGU): 27 nM | IC50 (BxPC-3; No βGU): 1110 nM | Relative volume RTV (X ± S.D.) ([1]; 20 mg/kg i.v. qw × 2): 0.69 ± 0.15 | T/C (%) ([1]; 20 mg/kg i.v. qw × 2): 13.6% | Tumor inhibition rate (%) ([1]; 20 mg/kg i.v. qw × 2): 94.2% | Tumor weight (g, X ± S.D.) ([1]; 20 mg/kg i.v. qw × 2): 0.069 ± 0.009 g | Final body weight change (%) ([1]; 20 mg/kg i.v. qw × 2, nude mouse): 13.6% | T/C (%) ([2]; 10 mg/kg i.v. qw × 2): 13.3% | Tumor inhibition rate (%) ([2]; 10 mg/kg i.v. qw × 2): 90.0% | Final body weight change (%) ([2]; 10 mg/kg i.v. qw × 2, nude mouse): −12.8% | Relative volume RTV (X ± S.D.) [3]: 0.11 ± 0.02 | T/C (%) [3]: 1.5% | Tumor inhibition rate (%) [3]: 98.9% | Tumor weight (g, X ± S.D.) [3]: 0.011 ± 0.005 g | Final body weight change (%) ([3]; nude mouse): 4.1% | Relative volume RTV (X ± S.D.) [4]: 0.23 ± 0.08 | T/C (%) [4]: 4.9% | Tumor inhibition rate (%) [4]: 96.7% | Tumor weight (g, X ± S.D.) [4]: 0.055 ± 0.037 g | Final body weight change (%) ([4]; nude mouse): 2.9% | Relative volume RTV (X ± S.D.) [5, 8]: 0.28 ± 0.03 | T/C (%) [5, 8]: 7.7% | Tumor inhibition rate (%) [5, 8]: 94.2% | Tumor weight (g, X ± S.D.) [5, 8]: 0.174 ± 0.164 g | Final body weight change (%) ([5]; BxPC-3 tumors more than 600 mm^3 after irinotecan 100 mg/kg i.p. qw × 2): −0.3% | IC50 (22RV1; Adding βGU): 5.2 nM | IC50 (22RV1; No βGU): 147 nM | IC50 (NCI-N87; Adding βGU): 24 nM | IC50 (NCI-N87; No βGU): 1140 nM | IC50 (LoVo; Adding βGU): 19 nM | IC50 (LoVo; No βGU): 253 nM | Relative volume RTV (X ± S.D.) [6, 9]: 1.10 ± 0.16 | T/C (%) [6, 9]: 29.6% | Tumor inhibition rate (%) [6, 9]: 73.6% | Tumor weight (g, X ± S.D.) [6, 9]: 0.720 ± 0.492 g | Final body weight change (%) ([6]; HCT116 tumors more than 600 mm^3 after irinotecan 100 mg/kg qw×2): −10.7% | IC50 (Fadu; Adding βGU): 8.5 nM | IC50 (Fadu; No βGU): 242 nM | IC50 (NCI-H460; Adding βGU): 14 nM | IC50 (NCI-H460; No βGU): 219 nM

(2S,3S,4S,5R,6S)-6-(3-((1-(6-((4′-((E)-(8-amino-1-hydroxy-5,7-disulfonicnaphthalen-2-yl)diazenyl)-[1,1′-biphenyl]-4-yl)amino)-6-oxohexyl)-1H-1,2,3-triazol-4-yl)methoxy)-4-((((S)-4,11-diethyl-4-hydroxy-3,14-dioxo-3,4,12,14-tetrahydro-1H-pyrano[3′,4′:6,7]indolazino[1,2-b]quinolin-9-yl)oxy)methyl)phenoxy)-3,4,5-trihydroxytetrahydro-2H-pyran-2-carboxylate trisodium [Example 78]
IC50 (MDA-MB-468; Adding βGU): 3.3 nM | IC50 (MDA-MB-468; No βGU): 28 nM | T/C (%) (human colon cancer SW620): 0.6% | Tumor inhibition rate (%) (human colon cancer SW620): 99.4% | IC50 (A375; Adding βGU): 22 nM | IC50 (A375; No βGU): 984 nM | IC50 (BEL-7404; Adding βGU): 35 nM | IC50 (BEL-7404; No βGU): 458 nM | IC50 (HCT116; Adding βGU (β-glucuronidase)): 2.4 nM | IC50 (HCT116; [7]): 42 nM | T/C (%) (human colon cancer LoVo): 15.8% | Tumor inhibition rate (%) (human colon cancer LoVo): 88.2% | IC50 (SW620; Adding βGU): 7.3 nM | IC50 (SW620; No βGU): 329 nM | IC50 (BxPC-3; Adding βGU): 13 nM | IC50 (BxPC-3; No βGU): 610 nM | IC50 (22RV1; Adding βGU): 7.6 nM | IC50 (22RV1; No βGU): 267 nM | IC50 (NCI-N87; Adding βGU): 26 nM | IC50 (NCI-N87; No βGU): 170 nM | IC50 (LoVo; Adding βGU): 11 nM | IC50 (LoVo; No βGU): 301 nM | IC50 (Fadu; Adding βGU): 6.9 nM | IC50 (Fadu; No βGU): 346 nM | IC50 (NCI-H460; Adding βGU): 9.6 nM | IC50 (NCI-H460; No βGU): 530 nM
